Measurements as given in patent publication US20250186329A1, “A SKIN BRIGHTENING COMPOSITION” (Conopco, Inc., d/b/a UNILEVER, priority 2022, published 2025).
Marks after values point to notes of the source that are not given here.

The molecules below were run on co-cultures of HaCaT keratinocytes and melanocytes (neonatal primary human epidermal melanocytes) (assay: Melanin content assay (% cellular melanin vs control) in keratinocyte/melanocyte co-cultures). Details: percentage cellular melanin vs control; 72 h of active treatment; OD at 405 nm; active concentrations (wt %) as given per example.
Type: cell-based
Procedure: Various samples containing actives were prepared and the % cellular melanin content was measured. The protocol for measuring the cellular melanin is summarized below:
Neonatal primary human epidermal melanocytes were sourced from Life Technologies. Melanocytes were maintained in Medium 254 supplemented with human melanocyte growth supplement (MGM). HaCaT keratinocytes were maintained in DMEM medium containing 10% heat inactivated FBS. All media were also supplemented with 10 U/mL penicillin G and 0.1 mg/mL streptomycin sulphate. Both cell types were maintained at 37° C. in a humidified incubator with 5% CO2 atmosphere. Maintenance and sub-culturing of cells were carried out as per the manufacturer's instructions.
For setup of co-cultures, 40,000 cells each of HaCaT keratinocytes and melanocytes were mixed in 1 mL of a 1:1 mix of MGM:KGM (KGM: Epilife medium supplemented with human keratinocyte growth supplement) and seeded as such per well, in 12 well Nunc plates.
Actives were prepared in media and test concentrations were added to cells along with relevant controls 24 h post seeding. After 72 h of active treatment, cell viability (using calcein method) and measurement of cellular melanin content was determined as described below.
After calcein fluorescence readings were obtained, cells were drained and fresh 0.15 mL of 1N NaOH (in 10% DMSO) per well was added. Cells were lysed by resuspension and incubation (60° C. for 1 h). Then, 0.1 mL of this lysate was transferred to a fresh 384-well plate and OD was measured at 405 nm in a TECAN M1000 plate reader. Melanin content was calculated as percentage cellular melanin vs control.
In the case of Inulin [Example C], the “% cellular melanin” value is reported as 96%. In the case of Inulin [B], the “% cellular melanin” value is reported as 86%. With CCCCCCc1ccc(O)cc1O [Example E, 4-hexyl resorcinol, reference compound] the “% cellular melanin” value was 69* %.
